Experimental data: US6620792B1, “Pharmaceutical compositions containing monosialoganglioside GM1 or derivative thereof suitable for the treatment of parkinson's disease” (Fidia S.p.A., priority 1992, dated 2003)

Key:
[1] = test system: mesencephalic dopaminergic neurons; assay: TOPA neurotoxicity in mesencephalic dopaminergic neuron cultures, TH immunofluorescence; assay type: cell-based, rat
Procedure: Mesencephalic neuron cultures were prepared according to Dal Toso et al. (Dal Toso et al.: “Development and survival of neurons in dissociated fetal mesencephalic serum-free cell cultures: I. Effects of cell density and of an adult mammalian striatal-derived neuronotrophic factor (SDNF)”, J. Neurosci., 8 (3) 733-745, 1988) from the mesencephalic tegmentum of 14.5-15 days' rat embryos.
Neurons (0.75×10^6) were plated on a poly-L-ornithine substrate in 12-well (25 mm dia. each) clusters.
Cultures were used between the fourth and the sixth day without changing the medium. […]
(§1) 2-hour pretreatment before acute incubation with TOPA;
(§2) cotreatment only with LIGA 20 before acute incubation with TOPA;
(§3) pretreatment with/without cotreatment before (100 μM for 2 h) and/or during (100 μM for 24 h) prolonged incubation with TOPA. TOPA cytotoxicity was determined by evaluating cellular survival, and more precisely:
TH immunofluorescence (specific for tyrosine hydroxylase) in mesencephalic dopaminergic neurons, as described by Berger et al. (Berger B. et al.: “Long-term development of mesencephalic dopaminergic neurons of mouse embryos in dissociated primary cultures: morphological and histochemical characteristics”, Neurosci., 7, 193-205, 1982);
(§4) Cytotoxicity is expressed as per cent cellular survival.
The results of the two tests (in triplicate) were analysed statistically according to Duncan's test.

cerebellar granule cells = assay: TOPA neurotoxicity in cerebellar granule cell cultures, MTT assay; assay type: cell-based; settings: for Neuronal survival (%): control cultures = 100%
Procedure: Granular cell cultures were obtained from 8-day rat cerebella and cultured (3×10^6 cells) on plates coated with poly-L-lysine substrate according to Skaper et al. (Skaper S. D. et al.: “Culture and use of primary and clonal neural cells”, Methods in Neurosciences, Ed. by P. M. Conn, Vol. 2, pp. 17-33, Academic Press, Orlando, 1990).
Twenty-four hours later, cytosine arabinoside (10 μM) was added to inhibit non-neuronal proliferation. Cerebellar granule cells were used 10-12 days later without changing the medium.
Cells were incubated with TOPA either for 40 minutes (100 μM acute exposure) or for 24 h (10 μM prolonged exposure).
Treatment with GM1, AGF2, AGF4 (100 μM) and LIGA 20 (1-30 μm) was carried out as follows:
as §1, §2, §3
MTT colorimetric assay of cerebellar neurons, as described by Mosmann (Mosmann T.: “Rapid colorimetric assay for cellular growth and survival: application to proliferation and cytotoxicity assays”, J. Immunol. Meth., 65, 55-63, 1983).
as §4
The results of the two tests (in triplicate) were analysed statistically according to Duncan's test. A brief description of same is reported below:
In FIG. 3 the dose-dependent protective effect of LIGA20 against TOPA-induced death of cultured cerebellar granule cells is represented. Cells were exposed concurrently to 100 μM TOPA and 1-30 μM LIGA20 or 200 μM GM1 in Locke's solution for 45 minutes (24° C.), washed and returned to their original medium. Survival was assessed 24 h later by the MTT method. Means±S.E.M. (n=9, 3 experiments). TOPA ( ), LIGA 20 ( ), GM1 ( ).
In vitro granule cells at the 11th day were incubated as indicated above. In the 40-minute exposure to TOPA, GM1 (100 μM) was used in 2-h pretreatment only. In the […] exposure to TOPA, GM1 (100 μM) was used either in 2-h pretreatment only or in 2-h pretreatment and in cotreatment with TOPA. The values are expressed with reference to the corresponding control cultures (=100%) and are an average (±S.D.) of two determinations, each being carried out in triplicate.

N-dichloroacetyl lyso GM1 [LIGA20]
TH+ cells (% control) ([1]; 30 μM LIGA20 cotreatment with 100 μM TOPA for 45 minutes, counted 24 h later, mean ± S.E.M., no drug 5.2 ± 1.1): 83.9 ± 4.2 % control
EC50 (cerebellar granule cells; cotreatment with 100 μM TOPA for 45 minutes, 1-30 μM LIGA20, MTT 24 h later (FIG. 3), read-out: ED50 of protection against the acute toxicity of TOPA): ~9 µM

NC(Cc1cc(O)c(O)cc1O)C(=O)O (stereo not drawn) [TOPA, 6-hydroxy-dopa, reference compound]
No. of TH+ cells ([1]; TOPA 10 μM alone for 24 h, average ± S.D., control 244 ± 20): 62 ± 8 (a)
Neuronal survival (%) (cerebellar granule cells; TOPA 10 μM alone, 24-h exposure): 17.1 ± 1.4%
Neuronal survival (%) (cerebellar granule cells; TOPA 100 μM alone, 40-minute exposure): 22 ± 2.0%

B1: BDNF: brain-derived neurotrophic factor (protein, UniProt P23560 19-247, looked up)
Neurotrophic factor BDNF …: APMKEANIRGQGGLAYPGVRTHGTLESVNGPKAGSRGLTSLADTFEHVIEELLDEDQKVRPNEENNKDADLYTSRVMLSSQVPLEPPLLFLLEEYKNYLDAANMSMRVRRHSDPARRGELSVCDSISEWVTAADKKTAVDMSGGTVTVLEKVPVSKGQLKQYFYETKCNPMGYTKEGCRGIDKRHWNSQCRTTQSYVRALTMDSKKRIGWRFIRIDTSCVCTLTIKRGR
neuroprotective activity alone against TOPA-induced neurotoxicity ([1]; BDNF alone at 1 ng/ml): no neuroprotective activity of their own
